Results on 27 compounds are retold here after US12202840B2, “Compounds for the treatment or alleviation of disorders associated with Tau aggregates” (AC Immune SA, priority 2018, dated 2025).

pEC50: −log10 of the molar value.

Experiment [1] relates to human neuroblastoma cell line overexpressing the full-length form of human Tau carrying the P301L mutation. The experiment can be described thus: Reduction of intracellular Tau aggregation (AlphaLISA). The format is cell-based. Conditions: compound at 5 μM, 24 h; aggregated Tau normalized to total Tau, relative to DMSO-treated cells. As for the experimental part: Reduction of Intracellular Tau Aggregation
A human neuroblastoma cell line overexpressing the full-length form of human Tau carrying the P301L mutation was cultured in complete medium [DMEM-F12 4.5 g/L Glutamax (Invitrogen), 15% FBS (Biochrom), 1% Peni/Strep (Invitrogen) supplemented with 2.5 μg/ml of G418 (Sigma-Aldrich) selection antibiotic]. The day before the experiment 5×10^5 cells/well were plated in a 6 well plate in 3 mL of complete medium. The next day, cells were incubated with DMSO or a compound of the present invention at a 5 μM for additional 24 h at 37° C. After incubation, cells were trypsinized, resupsended in 100 μl of homogenization buffer [25 mM Tris-HCl pH 7.4, 150 mM NaCl, 1 mM EDTA, 1 mM EGTA containing phosphatase inhibitors (30 mM NaF, 0.2 mM Na3VO4, 1 nM Okadaic acid, 1 mM PMSF, 5 mM Na4P2O7) and protease inhibitor cocktail (Complete™, Roche)], and then physically lysed with three rapid cycles of freezing and thawing. Samples were then directly tested in the AlphaLISA assay.
Phosphorylated, aggregated, and total Tau were quantified by AlphaLisa using the following antibody pairs: • HT7-Acceptor beads+biotin (BT)-Tau13-Donor beads: Total Tau • HT7-Acceptor beads+biotin (BT)-HT7-Donor beads: Aggregated human Tau
The Tau13 (Abcam) was biotinylated using EZ-Link® NHS-PEO Solid Phase biotinylation kit (Thermo Scientific), while the HT7-biotin was from a commercial source (Thermo Scientific).
For each antibody pairs the concentration of acceptor beads and biotinylated antibodies was optimized. All samples were first tested in a dilution series in PBS in order to identify the linear range and optimal dilution for each sample and assay. For the final protocol, the following reagents were added in a 384-well white OptiPlate (Perkin Elmer): • 5 μL of test diluted sample • 20 μL of the mixture biotin-mAb acceptor beads at the following final concentrations: • HT7-BT at 1.25 nM in combination with HT7-Acc beads at 10 μg/ml • Tau13-BT at 5 nM in combination with HT7-Acc beads at 2.5 μg/ml
After incubation of this mixture at room temperature for 1 h, 25 μL of Streptavidin Donor beads (Perkin Elmer) at 25 μg/mL were added in the dark. Plates were analyzed after 30 min incubation using the EnSpire Alpha instrument and EnSpire Workstation version 3.00.
Data for aggregated Tau were normalized to total Tau and then expressed as percentage of the DMSO-treated cells.

Experiment [2] has as its target T1, flTau aggregates (longest isoform of human Tau, 2N4R; 441 amino acids) (Homo sapiens, UniProt P10636).
T1 construct: 35 μM of recombinant full-length (fl)Tau in PBS were aggregated for 24 hours; made in house; host or cells: bacteria
The experiment can be described thus: Full-length Tau (flTau) disaggregation assay by Thioflavin T (ThT). The format is biochemical. Conditions: 2 μM flTau aggregates, 160 to 0.04 μM compound, 30 minutes RT, ThT fluorescence. As for the experimental part:
Biological Assay Description Full-Length Tau (flTau) Disaggregation Assay by Thioflavin T (ThT)
The longest isoform of human Tau (2N4R; 441 amino acids) was expressed in bacteria and purified. For the Tau disaggregation assay by ThT, 35 μM of recombinant full-length (fl)Tau in PBS were aggregated for 24 hours at 37° C. in presence of 50 μM of heparin (Sigma-Aldrich) and 10 mM of DTT (Sigma-Aldrich) under shaking at 750 RPM. Compounds were dissolved in anhydrous dimethyl sulfoxide (DMSO, Sigma-Aldrich) to reach a concentration of 10 mM.
(§1) flTau aggregates and serial dilutions of compounds were mixed together in PBS (volume 50 μL) to a final concentration of 2 μM of flTau aggregates and from 160 to 0.04 μM of compounds. The mixture was incubated for 30 minutes at room temperature (RT), then 40 μL of this mixture were transferred into a black 384-well plate assay (Perkin-Elmer) and mixed with 10 μL of 100 μM ThT in 250 mM glycine (both from Sigma-Aldrich) in PBS. Fluorescence (relative fluorescence units; RFU) was measured in monoplicate or duplicate on a Tecan reader (excitation: 440 nm; emission: 485 nm). Percentage of flTau disaggregation was then calculated and the halfmaximal effective concentration (EC50) was determined using GraphPad Prism version 5 (GraphPad Software) assuming a one-binding site fitting model.

The target in experiment [3] is T2, K18 aggregates (Tau K18 fragment, amino acids 244 to 372 of human Tau441) (Homo sapiens, UniProt P10636).
T2 construct: encompassing amino acids 244 to 372 of the longest isoform (2N4R) of human Tau441; host or cells: bacteria
T2 sequence (P10636 561-689): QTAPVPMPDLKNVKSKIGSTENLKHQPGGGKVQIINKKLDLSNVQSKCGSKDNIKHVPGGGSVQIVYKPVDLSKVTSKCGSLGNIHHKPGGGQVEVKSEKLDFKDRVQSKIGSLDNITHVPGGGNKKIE
The experiment can be described thus: Tau K18 disaggregation assay by ThT. Conditions: 2 μM K18 aggregates, 160 to 0.04 μM compound, 30 minutes RT, ThT fluorescence; read-out: TauK18 disaggregation EC50. It is filed as biochemical. As for the experimental part:
Tau K18 Disaggregation Assay by ThT
as §1, with “The Tau K18 fragment, encompassing amino acids 244 to 372 of the longest isoform (2N4R) of human Tau441, was expressed in bacteria and purified or bought from SignalChem. For the K18 disaggregation assay by ThT, 35 μM of recombinant K18 in PBS were aggregated for 24 hours at 37° C. in presence of 50 μM of heparin (Sigma-Aldrich) and 10 mM of DTT (Sigma-Aldrich) under shaking at 750 RPM. Compounds were dissolved in anhydrous dimethyl sulfoxide (DMSO, Sigma-Aldrich) to reach a concentration of 10 mM. K18 aggregates” for “flTau aggregates”, “of K18” for “of flTau”, “and half maximal” for “and the halfmaximal”

T1 sequence (P10636 1-441 isoform P10636-8): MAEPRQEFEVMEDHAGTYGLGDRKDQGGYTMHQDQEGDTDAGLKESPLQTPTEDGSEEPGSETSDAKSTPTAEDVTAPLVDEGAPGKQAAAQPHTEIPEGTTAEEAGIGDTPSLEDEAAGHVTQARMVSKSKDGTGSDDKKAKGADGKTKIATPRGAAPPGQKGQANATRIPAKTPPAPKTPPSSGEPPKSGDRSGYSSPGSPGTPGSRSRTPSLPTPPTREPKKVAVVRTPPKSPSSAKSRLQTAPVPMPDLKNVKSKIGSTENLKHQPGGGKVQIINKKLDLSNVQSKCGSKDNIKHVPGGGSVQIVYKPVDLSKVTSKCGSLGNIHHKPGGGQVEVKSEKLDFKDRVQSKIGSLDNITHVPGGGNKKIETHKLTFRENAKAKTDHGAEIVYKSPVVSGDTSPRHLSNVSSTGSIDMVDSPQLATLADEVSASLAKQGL

Take `CN(C)C1CCc2c(c3ccc(Nc4ccc5sc(N6CCC(F)CC6)nc5c4)nc3n2C)C1` (stereo not drawn) [Example 3]: in experiment [1], the “% Reduction of intracellular Tau aggregation” value is reported as “++ (++ %50 < x < 25)”. In addition, the pEC50 in experiment [2] and in experiment [3] was above 5.00 throughout. Consider `CN(C)C1CCc2oc3nc(Nc4ccc5sc(N6CCOCC6)nc5c4)ccc3c2C1` (stereo not drawn) [Example 5], for which the pEC50 in experiment [3] was above 5.00. Regarding `CC(C)N1CCc2c(c3ccc(Nc4ccc5sc(N6CCC(F)CC6)nc5c4)nc3n2C)C1` [Example 6], the pEC50 in experiment [2] and in experiment [3] was above 5.00 in each case.

Take `CC(C)N1CCc2oc3nc(Nc4ccc5nc(N6CCOCC6)sc5c4)ccc3c2C1` [Example 7]: the pEC50 in experiment [3] is above 5.00.

Turning to `CC(C)N1CCc2oc3nc(Nc4ccc5sc(N6CCOCC6)nc5c4)ccc3c2C1` [Example 8], in experiment [3], the pEC50 was 4.30 to 4.60. Same read-out and setting: under `CN(C)C1CCc2c(c3ccc(Nc4ccc5sc(N6CCOCC6)nc5c4)nc3n2C)C1` (stereo not drawn) [Example 9] stands above 5.00.

Regarding `CN(C)C1CCc2c(c3ccc(Nc4ccc5nc(N6CCOCC6)sc5c4)nc3n2C)C1` (stereo not drawn) [Example 10], the pEC50 in experiment [2] and in experiment [3] was above 5.00 each time. Consider `CN(C)[C@H]1CCc2c(c3ccc(Nc4ccc5sc(N6CCOCC6)nc5c4)nc3n2C)C1` [Example 11], for which the pEC50 in experiment [2] and in experiment [3] was above 5.00 in each case. `CN(C)[C@H]1CCc2c(c3ccc(Nc4ccc5nc(N6CCOCC6)sc5c4)nc3n2C)C1` [Example 13]: the pEC50 in experiment [2] and in experiment [3] was above 5.00 in each case. `CN(C)C1CCc2c(c3ccc(Nc4ccc5nc(N6CCC(F)CC6)sc5c4)nc3n2C)C1` (stereo not drawn) [Example 14]: the pEC50 in experiment [2] and in experiment [3] was 4.60 to 5.00 throughout.

For `CN(C)C1CCc2c(c3ccc(Nc4ccc5sc(N6CCC[C@H](F)C6)nc5c4)nc3n2C)C1` (stereo partly drawn) [Example 15], the negative logarithm of the EC50 (pEC50) in experiment [2] and in experiment [3] was above 5.00 each time. Consider `CN(C)C1CCc2c(c3ccc(Nc4ccc5sc(N6CCC[C@@H](F)C6)nc5c4)nc3n2C)C1` (stereo partly drawn) [Example 16], for which the pEC50 in experiment [2] and in experiment [3] was above 5.00 in each case. As to `CN(C)[C@@H]1CCc2c(c3ccc(Nc4ccc5nc(N6CCOCC6)oc5c4)nc3n2C)C1` [Example 17], the pEC50 in experiment [2] is 4.30 to 4.60. Consider `CN(C)[C@@H]1CCc2c(c3ccc(Nc4ccc5oc(N6CCOCC6)nc5c4)nc3n2C)C1` [Example 18], for which the results for the pEC50 in experiment [2] and in experiment [3] were 4.30 to 4.60 and 4.60 to 5.00, respectively. The like results for `CN(C)[C@@H]1CCc2c(c3ccc(Nc4ccc5nc(N6CCC[C@@H](F)C6)oc5c4)nc3n2C)C1` [Example 19] were, in that order, 4.60 to 5.00 and 4.60 to 5.00. With `CN(C)C1CCc2oc3nc(Nc4ccc5nc(N6CCOCC6)sc5c4)ccc3c2C1` (stereo not drawn) [Example 20], in experiment [3], the negative logarithm of the EC50 (pEC50) was 4.30 to 4.60. Same read-out and setting: under `CN(C)[C@H]1CCc2oc3nc(Nc4ccc5nc(N6CCOCC6)sc5c4)ccc3c2C1` [Example 21] stands 4.60 to 5.00; under `CN(C)[C@@H]1CCc2oc3nc(Nc4ccc5nc(N6CCOCC6)sc5c4)ccc3c2C1` [Example 22], 4.30 to 4.60; under `CN(C)C1CCc2oc3nc(Nc4ccc5nc(N6CCOCC6)oc5c4)ccc3c2C1` (stereo not drawn) [Example 28], 4.60 to 5.00.

Compound `CN(C)C1CCc2[nH]c3nc(Nc4ccc5nc(N6CCOCC6)sc5c4)ccc3c2C1` (stereo not drawn) [Example 29] showed a pEC50 in experiment [2] above 5.00.

Consider `CN(C)C1CCc2[nH]c3nc(Nc4ccc5oc(N6CCOCC6)nc5c4)ccc3c2C1` (stereo not drawn) [Example 30], for which the negative logarithm of the EC50 (pEC50) in experiment [2] is above 5.00. Consider `CN(C)C1CCc2oc3nc(Nc4ccc5oc(N6CCOCC6)nc5c4)ccc3c2C1` (stereo not drawn) [Example 31], for which the negative logarithm of the EC50 (pEC50) in experiment [2] was above 5.00; in experiment [3], 4.60 to 5.00. `CN(C)C1CCc2[nH]c3nc(Nc4ccc5nc(N6CCOCC6)oc5c4)ccc3c2C1` (stereo not drawn) [Example 32]: the negative logarithm of the EC50 (pEC50) in experiment [2] was 4.60 to 5.00. In the case of `CN(C)[C@@H]1CCc2oc3nc(Nc4ccc5sc(N6CCOCC6)nc5c4)ccc3c2C1` [Example 33], the pEC50 in experiment [3] is above 5.00.

Take `CN(C)[C@H]1CCc2oc3nc(Nc4ccc5sc(N6CCOCC6)nc5c4)ccc3c2C1` [Example 34]: the pEC50 in experiment [3] was above 5.00. Same read-out and setting: under `CN(C)[C@H]1CCc2oc3nc(Nc4ccc5oc(N6CCOCC6)nc5c4)ccc3c2C1` [Example 35] stands above 5.00. In the case of `CN(C)[C@@H]1CCc2oc3nc(Nc4ccc5oc(N6CCOCC6)nc5c4)ccc3c2C1` [Example 36], in experiment [3], the pEC50 was 4.60 to 5.00.
